In US20040266623A1, “SYNERGISTIC QUINCLORAC HERBICIDAL COMPOSITIONS” (priority 2003, published 2004):

How the values were obtained:
Assay in all cases: Greenhouse pot test, postemergent spray, visual control rating converted to percent control
Type in all cases: in vivo
[1] = test system: dandelion; details: for Control (1-9) Dandelion: scale 1=no control, 9=death of plant
In short: (§1)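 Plants were rated visually at 24 HAT through 21 DAT on a 1 (none) to 9 (death) scale, later expressed as percent control. Treatment was a postemergent greenhouse pot spray delivering 43.46 gallons/acre onto plants in soilless media. Two- and three-way mixtures were judged for synergy against Colby-expected values.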

[2] = test system: crabgrass; details: for Control (1-9) Crabgrass: scale 1=no control, 9=death of plant
In short: as §1

[3] = test system: plantain; details: for Control (1-9) Plantain: scale 1=no control, 9=death of plant
In short: as §1

[4] = test system: white clover; details: for Control (1-9) Clover: scale 1=no control, 9=death of plant
In short: as §1

O=C(O)c1c(Cl)ccc2cc(Cl)cnc12 [Quinclorac @ 0.18 lbs/A]
1: Control (1-9) Dandelion ([1]; Test 3, 24 HAT) | Control (1-9) Dandelion ([1]; Test 4, 24 HAT) | Control (1-9) Crabgrass ([2]; Test 3, 24 HAT) | Control (1-9) Crabgrass ([2]; Test 3, 72 HAT) | Control (1-9) Crabgrass ([2]; Test 4, 24 HAT) | Control (1-9) Crabgrass ([2]; Test 4, 72 HAT) | Control (1-9) Plantain ([3]; Test 3, 24 HAT) | Control (1-9) Plantain ([3]; Test 4, 24 HAT) | Control (1-9) Clover ([4]; Test 3, 24 HAT) | Control (1-9) Clover ([4]; Test 4, 24 HAT)
6: Control (1-9) Clover ([4]; Test 3, 21 DAT)
11.1%: % Control Dandelion ([1]; Test 3, 24 HAT) | % Control Dandelion ([1]; Test 4, 24 HAT) | % Control Crabgrass ([2]; Test 3, 24 HAT) | % Control Crabgrass ([2]; Test 3, 72 HAT) | % Control Crabgrass ([2]; Test 4, 24 HAT) | % Control Crabgrass ([2]; Test 4, 72 HAT) | % Control Plantain ([3]; Test 3, 24 HAT) | % Control Plantain ([3]; Test 4, 24 HAT) | % Control Clover ([4]; Test 3, 24 HAT) | % Control Clover ([4]; Test 4, 24 HAT)
44.4%: % Control Clover ([4]; Test 3, 7 DAT) | % Control Clover ([4]; Test 3, 14 DAT)
22.2%: % Control Dandelion ([1]; Test 3, 7 DAT) | % Control Dandelion ([1]; Test 3, 72 HAT) | % Control Dandelion ([1]; Test 4, 72 HAT) | % Control Crabgrass ([2]; Test 3, 7 DAT) | % Control Plantain ([3]; Test 3, 7 DAT) | % Control Plantain ([3]; Test 3, 72 HAT) | % Control Plantain ([3]; Test 4, 72 HAT) | % Control Clover ([4]; Test 3, 72 HAT) | % Control Clover ([4]; Test 4, 72 HAT)
33.3%: % Control Dandelion ([1]; Test 3, 14 DAT) | % Control Dandelion ([1]; Test 3, 21 DAT) | % Control Crabgrass ([2]; Test 3, 14 DAT) | % Control Crabgrass ([2]; Test 3, 21 DAT) | % Control Plantain ([3]; Test 3, 14 DAT) | % Control Plantain ([3]; Test 3, 21 DAT)
66.7%: % Control Clover ([4]; Test 3, 21 DAT)
4: Control (1-9) Clover ([4]; Test 3, 7 DAT) | Control (1-9) Clover ([4]; Test 3, 14 DAT)
3: Control (1-9) Dandelion ([1]; Test 3, 14 DAT) | Control (1-9) Dandelion ([1]; Test 3, 21 DAT) | Control (1-9) Crabgrass ([2]; Test 3, 14 DAT) | Control (1-9) Crabgrass ([2]; Test 3, 21 DAT) | Control (1-9) Plantain ([3]; Test 3, 14 DAT) | Control (1-9) Plantain ([3]; Test 3, 21 DAT)
2: Control (1-9) Dandelion ([1]; Test 3, 7 DAT) | Control (1-9) Dandelion ([1]; Test 3, 72 HAT) | Control (1-9) Dandelion ([1]; Test 4, 72 HAT) | Control (1-9) Crabgrass ([2]; Test 3, 7 DAT) | Control (1-9) Plantain ([3]; Test 3, 7 DAT) | Control (1-9) Plantain ([3]; Test 3, 72 HAT) | Control (1-9) Plantain ([3]; Test 4, 72 HAT) | Control (1-9) Clover ([4]; Test 3, 72 HAT) | Control (1-9) Clover ([4]; Test 4, 72 HAT)

O=C(O)c1c(Cl)ccc2cc(Cl)cnc12 [Quinclorac @ 0.75 lbs/A]
8: Control (1-9) Clover ([4]; Test 3, 21 DAT)
5: Control (1-9) Plantain ([3]; Test 3, 14 DAT) | Control (1-9) Plantain ([3]; Test 3, 21 DAT) | Control (1-9) Clover ([4]; Test 3, 14 DAT)
2: Control (1-9) Dandelion ([1]; Test 3, 7 DAT) | Control (1-9) Dandelion ([1]; Test 3, 72 HAT) | Control (1-9) Dandelion ([1]; Test 4, 72 HAT) | Control (1-9) Crabgrass ([2]; Test 3, 7 DAT) | Control (1-9) Crabgrass ([2]; Test 3, 72 HAT) | Control (1-9) Crabgrass ([2]; Test 4, 72 HAT) | Control (1-9) Plantain ([3]; Test 3, 72 HAT) | Control (1-9) Clover ([4]; Test 3, 72 HAT) | Control (1-9) Clover ([4]; Test 4, 72 HAT)
33.3%: % Control Dandelion ([1]; Test 3, 21 DAT) | % Control Plantain ([3]; Test 3, 7 DAT) | % Control Plantain ([3]; Test 4, 72 HAT)
44.4%: % Control Dandelion ([1]; Test 3, 14 DAT) | % Control Clover ([4]; Test 3, 7 DAT)
6: Control (1-9) Crabgrass ([2]; Test 3, 14 DAT)
22.2%: % Control Dandelion ([1]; Test 3, 7 DAT) | % Control Dandelion ([1]; Test 3, 72 HAT) | % Control Dandelion ([1]; Test 4, 72 HAT) | % Control Crabgrass ([2]; Test 3, 7 DAT) | % Control Crabgrass ([2]; Test 3, 72 HAT) | % Control Crabgrass ([2]; Test 4, 72 HAT) | % Control Plantain ([3]; Test 3, 72 HAT) | % Control Clover ([4]; Test 3, 72 HAT) | % Control Clover ([4]; Test 4, 72 HAT)
7: Control (1-9) Crabgrass ([2]; Test 3, 21 DAT)
66.7%: % Control Crabgrass ([2]; Test 3, 14 DAT)
1: Control (1-9) Dandelion ([1]; Test 3, 24 HAT) | Control (1-9) Dandelion ([1]; Test 4, 24 HAT) | Control (1-9) Crabgrass ([2]; Test 3, 24 HAT) | Control (1-9) Crabgrass ([2]; Test 4, 24 HAT) | Control (1-9) Plantain ([3]; Test 3, 24 HAT) | Control (1-9) Plantain ([3]; Test 4, 24 HAT) | Control (1-9) Clover ([4]; Test 3, 24 HAT) | Control (1-9) Clover ([4]; Test 4, 24 HAT)
55.6%: % Control Plantain ([3]; Test 3, 14 DAT) | % Control Plantain ([3]; Test 3, 21 DAT) | % Control Clover ([4]; Test 3, 14 DAT)
88.9%: % Control Clover ([4]; Test 3, 21 DAT)
77.8%: % Control Crabgrass ([2]; Test 3, 21 DAT)
4: Control (1-9) Dandelion ([1]; Test 3, 14 DAT) | Control (1-9) Clover ([4]; Test 3, 7 DAT)
11.1%: % Control Dandelion ([1]; Test 3, 24 HAT) | % Control Dandelion ([1]; Test 4, 24 HAT) | % Control Crabgrass ([2]; Test 3, 24 HAT) | % Control Crabgrass ([2]; Test 4, 24 HAT) | % Control Plantain ([3]; Test 3, 24 HAT) | % Control Plantain ([3]; Test 4, 24 HAT) | % Control Clover ([4]; Test 3, 24 HAT) | % Control Clover ([4]; Test 4, 24 HAT)
3: Control (1-9) Dandelion ([1]; Test 3, 21 DAT) | Control (1-9) Plantain ([3]; Test 3, 7 DAT) | Control (1-9) Plantain ([3]; Test 4, 72 HAT)

O=C(O)c1c(Cl)ccc2cc(Cl)cnc12 [Quinclorac @ 0.375 lbs/A]
2: Control (1-9) Dandelion ([1]; Test 3, 7 DAT) | Control (1-9) Dandelion ([1]; Test 3, 72 HAT) | Control (1-9) Dandelion ([1]; Test 4, 24 HAT) | Control (1-9) Dandelion ([1]; Test 4, 72 HAT) | Control (1-9) Crabgrass ([2]; Test 3, 7 DAT) | Control (1-9) Plantain ([3]; Test 3, 72 HAT) | Control (1-9) Plantain ([3]; Test 4, 72 HAT) | Control (1-9) Clover ([4]; Test 3, 72 HAT) | Control (1-9) Clover ([4]; Test 4, 72 HAT)
6: Control (1-9) Crabgrass ([2]; Test 3, 21 DAT)
3: Control (1-9) Plantain ([3]; Test 3, 7 DAT)
33.3%: % Control Plantain ([3]; Test 3, 7 DAT)
5: Control (1-9) Dandelion ([1]; Test 3, 21 DAT) | Control (1-9) Clover ([4]; Test 3, 14 DAT)
1: Control (1-9) Dandelion ([1]; Test 3, 24 HAT) | Control (1-9) Crabgrass ([2]; Test 3, 24 HAT) | Control (1-9) Crabgrass ([2]; Test 3, 72 HAT) | Control (1-9) Crabgrass ([2]; Test 4, 24 HAT) | Control (1-9) Crabgrass ([2]; Test 4, 72 HAT) | Control (1-9) Plantain ([3]; Test 3, 24 HAT) | Control (1-9) Plantain ([3]; Test 4, 24 HAT) | Control (1-9) Clover ([4]; Test 3, 24 HAT) | Control (1-9) Clover ([4]; Test 4, 24 HAT)
8: Control (1-9) Clover ([4]; Test 3, 21 DAT)
22.2%: % Control Dandelion ([1]; Test 3, 7 DAT) | % Control Dandelion ([1]; Test 3, 72 HAT) | % Control Dandelion ([1]; Test 4, 24 HAT) | % Control Dandelion ([1]; Test 4, 72 HAT) | % Control Crabgrass ([2]; Test 3, 7 DAT) | % Control Plantain ([3]; Test 3, 72 HAT) | % Control Plantain ([3]; Test 4, 72 HAT) | % Control Clover ([4]; Test 3, 72 HAT) | % Control Clover ([4]; Test 4, 72 HAT)
44.4%: % Control Dandelion ([1]; Test 3, 14 DAT) | % Control Crabgrass ([2]; Test 3, 14 DAT) | % Control Plantain ([3]; Test 3, 14 DAT) | % Control Plantain ([3]; Test 3, 21 DAT) | % Control Clover ([4]; Test 3, 7 DAT)
4: Control (1-9) Dandelion ([1]; Test 3, 14 DAT) | Control (1-9) Crabgrass ([2]; Test 3, 14 DAT) | Control (1-9) Plantain ([3]; Test 3, 14 DAT) | Control (1-9) Plantain ([3]; Test 3, 21 DAT) | Control (1-9) Clover ([4]; Test 3, 7 DAT)
11.1%: % Control Dandelion ([1]; Test 3, 24 HAT) | % Control Crabgrass ([2]; Test 3, 24 HAT) | % Control Crabgrass ([2]; Test 3, 72 HAT) | % Control Crabgrass ([2]; Test 4, 24 HAT) | % Control Crabgrass ([2]; Test 4, 72 HAT) | % Control Plantain ([3]; Test 3, 24 HAT) | % Control Plantain ([3]; Test 4, 24 HAT) | % Control Clover ([4]; Test 3, 24 HAT) | % Control Clover ([4]; Test 4, 24 HAT)
66.7%: % Control Crabgrass ([2]; Test 3, 21 DAT)
55.6%: % Control Dandelion ([1]; Test 3, 21 DAT) | % Control Clover ([4]; Test 3, 14 DAT)
88.9%: % Control Clover ([4]; Test 3, 21 DAT)
